Source: patent US20230066268A1, “INDAZOLE DERIVATIVES AND METHODS OF USE THEREOF FOR THE TREATMENT OF HERPES VIRUSES” (Merck Sharp & Dohme LLC, priority 2019, published 2023)
Where two headings read alike, the source gives them in different places.

What was measured:
[1] = target: T1, Human cytomegalovirus DNA polymerase (Human cytomegalovirus, UniProt P08546); assay: CMV polymerase assay (AlphaLISA); format: biochemical; settings: polymerase assay of Example 27, HCMV polymerase 0.2 nM
T1 construct: made in house; host or cells: SF21 insect cells (baculovirus vector)
T1 sequence (P08546 whole entry): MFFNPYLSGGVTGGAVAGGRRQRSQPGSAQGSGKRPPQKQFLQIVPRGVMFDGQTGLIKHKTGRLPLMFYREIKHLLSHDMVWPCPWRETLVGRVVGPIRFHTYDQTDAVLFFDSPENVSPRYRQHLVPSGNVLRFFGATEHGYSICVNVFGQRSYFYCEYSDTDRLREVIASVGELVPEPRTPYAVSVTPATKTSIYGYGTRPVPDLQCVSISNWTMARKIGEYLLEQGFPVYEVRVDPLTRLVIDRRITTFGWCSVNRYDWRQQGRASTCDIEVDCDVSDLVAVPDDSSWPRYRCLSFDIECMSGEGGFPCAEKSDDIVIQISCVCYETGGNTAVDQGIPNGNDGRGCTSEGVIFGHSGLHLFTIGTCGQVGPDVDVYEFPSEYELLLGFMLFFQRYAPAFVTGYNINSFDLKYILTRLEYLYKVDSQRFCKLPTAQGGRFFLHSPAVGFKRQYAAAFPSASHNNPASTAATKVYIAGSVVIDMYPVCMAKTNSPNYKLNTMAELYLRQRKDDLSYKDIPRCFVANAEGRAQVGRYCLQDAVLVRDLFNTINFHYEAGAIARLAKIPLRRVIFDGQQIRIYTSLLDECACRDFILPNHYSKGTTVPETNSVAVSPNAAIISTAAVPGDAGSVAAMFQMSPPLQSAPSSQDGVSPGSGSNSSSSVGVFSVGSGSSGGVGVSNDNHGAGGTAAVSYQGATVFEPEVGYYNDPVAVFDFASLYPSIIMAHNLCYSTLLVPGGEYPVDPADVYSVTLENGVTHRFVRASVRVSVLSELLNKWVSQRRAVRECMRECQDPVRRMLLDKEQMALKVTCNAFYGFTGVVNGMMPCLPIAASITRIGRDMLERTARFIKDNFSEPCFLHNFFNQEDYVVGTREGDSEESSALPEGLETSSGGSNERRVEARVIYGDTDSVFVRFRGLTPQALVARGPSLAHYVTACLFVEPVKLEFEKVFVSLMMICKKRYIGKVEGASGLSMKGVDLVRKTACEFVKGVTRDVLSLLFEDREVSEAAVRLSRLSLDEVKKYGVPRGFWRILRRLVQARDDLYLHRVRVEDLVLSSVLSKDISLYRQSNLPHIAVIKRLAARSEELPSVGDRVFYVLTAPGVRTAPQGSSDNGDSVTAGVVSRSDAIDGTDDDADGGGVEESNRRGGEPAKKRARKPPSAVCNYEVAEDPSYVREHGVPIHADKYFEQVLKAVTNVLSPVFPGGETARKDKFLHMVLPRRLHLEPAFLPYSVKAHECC
Procedure: (§1) CMV and VZV Polymerase Assays
(§2) Human cytomegalovirus and varicella zoster virus DNA polymerases were expressed via baculovirus vector in SF21 cells and purified. Heterodimeric nucleic acid substrate used in the herpesvirus polymerase reactions were generated by annealing a 59-mer template to a 17-mer digoxigenin-labeled primer. Polymerase (HCMV final concentration of 0.2 nM; VZV final concentration of 0.4 nM) was combined with an inhibitor compound or DMSO in assay buffer (10 mM HEPES, pH 7.5, 25 mM KCl, 25 mM NaCl, 5 mM MgCl2, 5% glycerol, 0.67 mg/mL bovine serum albumin, and 1 mM tris(2-carboxyethyl)phosphine)), and this mixture was pre-incubated for 30 minutes at room temperature in 384-well microtiter plates. The polymerization reaction was initiated by the addition of template/primer substrate (final concentration: 1.6 nM) and dNTPs (final concentration: 24 nM dCTP, 24 nMdGTP, 16 nM dATP, 16 nM dTTP, and 0.8 nM biotin-dUTP). After a 60 minute incubation period at 37° C., the reactions were terminated using quench buffer (25 mM HEPES pH 7.5, 100 mM NaCl, 0.25% Tween-20, 12 mM EDTA, and 1 mg/mL bovine serum albumin). Incorporation of biotinylated UTP was detected with 2.5-5 μg/mL anti-DIG AlphaLISA acceptor beads and 5-10 μg/mL streptavidin AlphaLISA donor beads (PerkinElmer). Compound effects were normalized to the window defined by the controls (DMSO only and pre-quenched wells) and were fit using a 4-parameter algorithm to report an IC50.

[2] = system: HCMV Strain AD169 in MRC-5 cells; assay: CMV cell assay; format: cell-based
Procedure: MRCS and Vero cells were obtained from ATCC and were maintained at 37° C./5% CO2/90% relative humidity in Minimal Essential Medium with 10% fetal bovine serum, […], 100 units/mL penicillin and 100 ug/mL streptomycin. Assay plates were prepared by dispensing compounds dissolved in DMSO into wells of 384 well collagen-coated plates using an ECHO acoustic dispenser. Each test compound was tested in a 10-point, serial 3-fold dilution. Controls included uninfected cells and infected cells treated only with DMSO. Assays were initiated by mixing selected cells, in suspension, with virus, and dispensing 50 μl/well infected cells to pre-plated compounds. Plates were incubated at 37° C./5% CO2/90% relative humidity for ˜72 hours to permit genomic replication, and infected cells were lysed by the addition of an equal volume of lysis buffer (10 mM Tris-HCl, pH8, 50 mM KCl, 2 mM MgCl2, 0.45% NP-40, 0.45% Tween-20, and 100 μg/mL proteinase K). An aliquot of the lysate was then transferred to a 384-well PCR plate and incubated at 56° C. for 1 hour, and then at 95° C. for 10 minutes. Levels of a viral gene were measured in 10 ul qPCR assays using TaqMan® Gene Expression Master Mix (Applied Biosystems) and an 7900HT Fast Real-Time PCR System with 384-Well Block Module. 7-point, serial 10-fold dilutions of a plasmid standard were run on each plate to generate a standard curve, and genome copies numbers were calculated by plotting experimental Ct onto linear regression of the standard curve. Compound effects on viral genome copy number were normalized to the window defined by the controls. Calculated % effects were fit using a 4-parameter algorithm, and EC50 was reported.
HCMV: Strain AD169 was assayed in MRC-5 cells and was used at 0.05-0.1 pfu/cell. The assays were performed in either growth media or in the same media with 50% fetal bovine serum. Primer-probe set was Thermo Fisher Assay ID=AIFATFK. HSV-1: Strain F was assayed in Vero or MRCS cells and was used at 0.0005-0.004 pfu/cell in growth medium. Primer-probe set was Thermo Fisher Assay ID=AIBJZIB. HSV-2: Strain G was assayed in Vero or MRCS cells and was used at 0.004-0.4 pfu/cell in growth medium. Primer-probe set was Thermo Fisher Assay ID=AICSXOJ.

[3] = system: HSV-1, strain F in Vero cells; assay: HSV CPE assay, HSV-1; format: cell-based
Procedure: (§3) Vero cells were maintained at 37° C./5% CO2/90% relative humidity in Dulbecco's Modified Eagle's Medium with 10% fetal bovine serum, […], 100 units/mL penicillin and 100 ug/mL streptomycin. For this assay, Vero cells (maintained at 37° C./5% CO2/90% relative humidity in Dulbecco's Modified Eagle's Medium with 10% fetal bovine serum, […], 100 units/mL penicillin and 100 μg/mL streptomycin) were seeded in 96-well microtiter plates and incubated for about 15 hours. They were then infected with HSV-1, strain F, or with HSV-2, strain G, at a multiplicity of infection known to result in 85-95% loss of cell viability during the assays, in the same media with 2% fetal bovine serum. Test compounds were dissolved in DMSO, and 6 point serial 10-fold dilutions in DMSO were prepared. Test compounds were added to infected cells, and the plates were incubated at 37° C./5% CO2/90% relative humidity for 5 days. Each plate contains cell control wells (cells only), virus control wells (cells plus virus), drug colorimetric control wells (drug only), background control wells (media only) and experimental wells (drug plus cells plus virus). Cytoprotection was assessed by the addition of Celltiter®96 Reagent (Promega, Madison, Wis.), according to manufacturer's recommendations. % cytopathic effect (CPE) reduction was calculated and IC50 (concentration inhibition virus replication by 50%) was reported.

[4] = target: T2, varicella zoster virus DNA polymerase (Varicella-zoster virus, UniProt P09252); assay: VZV polymerase assay (AlphaLISA); format: biochemical; settings: polymerase assay of Example 27, VZV polymerase 0.4 nM
T2 construct: made in house; host or cells: SF21 insect cells (baculovirus vector)
T2 sequence (P09252 whole entry): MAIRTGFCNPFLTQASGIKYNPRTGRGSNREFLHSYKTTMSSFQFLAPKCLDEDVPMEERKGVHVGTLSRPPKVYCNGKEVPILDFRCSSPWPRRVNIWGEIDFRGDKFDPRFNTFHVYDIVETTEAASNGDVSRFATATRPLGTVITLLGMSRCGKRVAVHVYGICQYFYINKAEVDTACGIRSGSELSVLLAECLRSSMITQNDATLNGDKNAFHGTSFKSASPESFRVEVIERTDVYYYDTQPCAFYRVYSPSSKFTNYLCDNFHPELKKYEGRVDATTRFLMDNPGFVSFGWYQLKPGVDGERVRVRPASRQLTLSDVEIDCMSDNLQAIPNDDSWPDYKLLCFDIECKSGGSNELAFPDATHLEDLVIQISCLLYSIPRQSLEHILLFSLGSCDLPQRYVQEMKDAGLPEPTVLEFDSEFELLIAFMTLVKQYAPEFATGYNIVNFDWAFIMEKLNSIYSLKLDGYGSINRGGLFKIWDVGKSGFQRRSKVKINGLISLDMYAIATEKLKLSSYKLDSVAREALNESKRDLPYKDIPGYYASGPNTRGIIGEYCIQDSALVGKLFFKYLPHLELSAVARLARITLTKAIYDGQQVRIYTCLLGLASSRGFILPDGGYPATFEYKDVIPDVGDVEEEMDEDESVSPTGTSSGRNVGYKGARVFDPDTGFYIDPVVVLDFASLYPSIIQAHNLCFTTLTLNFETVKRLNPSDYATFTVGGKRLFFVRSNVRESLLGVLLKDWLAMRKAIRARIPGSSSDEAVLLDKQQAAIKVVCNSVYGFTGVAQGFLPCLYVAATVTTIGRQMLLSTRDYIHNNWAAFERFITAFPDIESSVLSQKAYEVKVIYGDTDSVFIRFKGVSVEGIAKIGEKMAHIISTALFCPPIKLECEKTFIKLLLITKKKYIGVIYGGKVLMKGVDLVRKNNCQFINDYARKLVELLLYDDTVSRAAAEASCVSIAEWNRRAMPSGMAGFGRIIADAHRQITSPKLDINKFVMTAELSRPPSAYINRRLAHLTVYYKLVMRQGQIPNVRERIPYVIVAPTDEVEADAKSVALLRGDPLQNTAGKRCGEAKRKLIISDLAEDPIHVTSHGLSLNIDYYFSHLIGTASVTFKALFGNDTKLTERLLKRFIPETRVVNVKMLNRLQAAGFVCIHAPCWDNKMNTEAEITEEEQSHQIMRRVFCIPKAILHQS
Procedure: as §1, §2

[5] = system: HSV-2, strain G in Vero cells; assay: HSV CPE assay, HSV-2; format: cell-based
Procedure: as §3

[6] = Human betaherpesvirus 5, AD169, MRC5, footnote b: assay described in Example 25, read-out: CMV Cell^b (EC50)
[7] = Human alphaherpesvirus 1, 120 h, unstarred values: CPE assay of Example 25, Vero cells, 5 days, read-out: HSV1 Cell^b (EC50)
[8] = Human alphaherpesvirus 2, 120 h, unstarred values: CPE assay of Example 25, Vero cells, 5 days, read-out: HSV2 Cell^b CPE(EC50)
[9] = Human betaherpesvirus 5, AD169, MRC5, read-out: CMV Cell^b (EC50), footnote b: assay described in Example 25
[10] = Human alphaherpesvirus 1, Vero, 120 h, read-out: HSV1 Cell^b (EC50), unstarred values: CPE assay of Example 25, Vero cells, 5 days
[11] = Human alphaherpesvirus 2, Vero, 120 h, read-out: HSV2 Cell^b CPE(EC50), unstarred values: CPE assay of Example 25, Vero cells, 5 days
[12] = read-out: HSV1 Cell^b (EC50), unstarred values: CPE assay of Example 25, Vero cells, 5 days

Structure (SMILES)	IC50 ([1]; read-out: CMV^a (IC50))	EC50 [2, 6]	EC50 [3, 7]	IC50 ([4]; read-out: VZV^a (IC50))	EC50 [5, 8]	other results
Cn1nncc1COc1ccc2c(C(=O)NCc3ccc(Cl)cc3)nn(C)c2c1Cl [Compound 10]	41 nM	460 nM	250 nM	12 nM	590 nM	–
Cc1c(CN2CCCS(=O)(=O)CC2)ccc2c1c(C(=O)NCc1ccc(Cl)cc1)nn2C [Compound 18]	120 nM	2900 nM	6300 nM	160 nM	6100 nM	–
Cc1nnn(C)c1COc1ccc2c(C(=O)NCc3ccc(Cl)cc3)nn(C[C@@H](C)O)c2c1F [Compound 12]	–	–	–	–	–	IC50 ([1]; CMV^a (IC50)): 7.1 nM; EC50 [2, 9]: 300 nM; IC50 ([4]; VZV^a (IC50)): 1.6 nM
Cn1nc(C(=O)NCc2ccc([N+](=O)[O-])cc2)c2cc(CN3CCOCC3)ccc21 [Compound 23]	990 nM	12000 nM	–	180 nM	–	–
Cc1cc(CN2CCCS(=O)(=O)CC2)cc2c(C(=O)NCc3ccc(C#N)cc3)nn(CCC#N)c12 [Compound 8]	–	–	–	–	–	IC50 ([1]; CMV^a (IC50)): 103 nM; EC50 [2, 9]: 150 nM; EC50 [3, 10]: 6400 nM; IC50 ([4]; VZV^a (IC50)): 62 nM; EC50 [5, 11]: 22000 nM
Cc1c(N2CCn3nncc3C2)ccc2c(C(=O)NCc3ccc(Cl)cc3)nn(CCOCCO)c12 [Compound 5]	–	–	–	–	–	IC50 ([1]; CMV^a (IC50)): 33 nM; EC50 [2, 9]: 97 nM; EC50 [3, 10]: > 40000 nM; IC50 ([4]; VZV^a (IC50)): 12 nM; EC50 [5, 11]: 610 nM
Cc1c(CN2CCOCC2)cc2c(C(=O)NCc3ccc(Cl)cc3)nn(C)c2c1C [Compound 22]	580 nM	4300 nM	–	–	–	–
Cc1c(N2CCn3nncc3C2)ccc2c(C(=O)NCc3ccc(C#N)cc3)nn(CCC#N)c12 [Compound 1]	–	–	–	–	–	IC50 ([1]; CMV^a (IC50)): 53 nM; EC50 [2, 9]: 120 nM; EC50 [3, 10]: 1600 nM; IC50 ([4]; VZV^a (IC50)): 13 nM; EC50 [5, 11]: 2500 nM
Cn1nc(C(=O)NCc2ccc(Cl)cc2)c2ccc(N3CCn4nncc4C3)nc21 [Compound 30]	1600 nM	–	–	3000 nM	–	–
Cn1nc(C(=O)NCc2ccc(Cl)cc2)c2c(O)c(CN3CCOCC3)ccc21 [Compound 20]	390 nM	> 9900 nM	> 40000 nM	66 nM	> 40000 nM	–
Cc1c(CN2CCOCC2)cc(C)c2c1c(C(=O)NCc1ccc(Cl)cc1)nn2C [Compound 19]	280 nM	6100 nM	1800 nM	66 nM	5300 nM	–
Cc1c(N2CCn3nncc3C2)ccc2c(C(=O)NCc3ccc(Cl)cc3)nn(C3CCNC3)c12 (stereo not shown) [Compound 4]	–	–	–	–	–	IC50 ([1]; CMV^a (IC50)): 37 nM; EC50 [2, 9]: 85 nM; EC50 [3, 12]: 3100 nM; IC50 ([4]; VZV^a (IC50)): 16 nM; EC50 [5, 11]: 2100 nM
N#Cc1c(N2CCn3nncc3C2)ccc2c(C(=O)NCc3ccc(Cl)cc3)n[nH]c12 [Compound 11]	23 nM	93 nM	480 nM	3.7 nM	700 nM	–
Cn1nc(C(=O)NCc2ccc(F)cc2)c2cc(CN3CCOCC3)ccc21 [Compound 26]	3300 nM	–	–	740 nM	–	–
Cc1c(N2CCn3nncc3C2)ccc2c(C(=O)NCc3ccc(C#N)cc3)nn(C[C@H](C)NC(=O)C(C)C)c12 [Compound 32]	–	–	–	–	–	IC50 ([1]; CMV^a (IC50)): 4.2 nM; EC50 [2, 9]: 60 nM; EC50 [3, 10]: 14000 nM; IC50 ([4]; VZV^a (IC50)): 1.8 nM; EC50 [5, 11]: 13000 nM
Cn1nc(C(=O)NCc2ccc(Cl)cc2)c2c3c(ccc21)C(N1CCOCC1)CC3 (single isomer, unassigned) [Compound 16]	260 nM	970 nM	1500 nM	38 nM	1600 nM	–
Cn1nc(C(=O)NCc2ccc(Cl)cc2)c2cnc(N3CCn4nncc4C3)cc21 [Compound 28]	810 nM	7500 nM	–	250 nM	–	–
Cn1nc(C(=O)NCc2ccc(Cl)cc2)c2c(F)c(CN3CCOCC3)ccc21 [Compound 21]	480 nM	7200 nM	2200 nM	180 nM	3600 nM	–
Cc1c(NCc2cnnn2C)ccc2c(C(=O)NCc3ccc(Cl)cc3)n[nH]c12 [Compound 13]	17 nM	320 nM	–	5 nM	–	–
Cn1cc(C(=O)NCc2ccc(Cl)cc2)c2ccc(N3CCn4nncc4C3)cc21 [Compound 31]	190 nM	–	–	120 nM	–	–
O=C(NCc1ccc(Cl)cc1)c1n[nH]c2c(Cl)c(N3CCn4nncc4C3)ccc12 [Compound 7]	22 nM	120 nM	120 nM	5.1 nM	200 nM	–
Cn1nc(C(=O)NCc2ccc(Cl)cc2)c2cc(CN3CCOCC3)ncc21 [Compound 29]	2400 nM	–	–	1600 nM	–	–
Cc1c(N2CCn3nncc3C2)ccc2c(C(=O)NCc3ccc(Cl)cc3)nn(C3CCNC3)c12 (stereo not shown) [Compound 6]	–	–	–	–	–	IC50 ([1]; CMV^a (IC50)): 45 nM; EC50 ([2]; read-out: CMV Cell^b (EC50), footnote b: assay described in Example 25): 110 nM; EC50 [3, 12]: > 40000 nM; IC50 ([4]; VZV^a (IC50)): 19 nM; EC50 ([5]; read-out: HSV2 Cell^b CPE(EC50), unstarred values: CPE assay of Example 25, Vero cells, 5 days): 3700 nM
Cn1nc(C(=O)NCc2ccc(Br)cc2)c2cc(CN3CCOCC3)ccc21 [Compound 24]	920 nM	> 9900 nM	–	220 nM	–	–
Cn1nc(C(=O)NCc2ccc(Cl)cc2)c2ccc(N3CCn4nncc4C3)c(Br)c21 [Compound 15]	25 nM	930 nM	850 nM	14 nM	930 nM	–
